PubChem BioAssay AID1745844 (Carcinogenic Potency Database (CPDB), 2022)
Several values for one entry are separate records, joined by “and”; a condition that tells them apart may be missing. Equal values may be shown once. Activity calls are given as the source filed them. The rule behind the calls is not given here.

System: rodent lifetime carcinogenesis bioassay, tumor incidence TD50
Assay: chronic cancer bioassays in animals – CPDB, compiled studies (AID 1745844)

Question: What does the source list for `FC(F)=C(F)F`?
Answer: TD50 (mouse, strain B6C3F1, females, inhaled, site: Harderian gland, lesion: adenoma, dosed 95 weeks, study length 95 weeks): 1470 mg/kg/day; TD50 (mouse, strain B6C3F1, females, inhaled, site: all sites + liver, lesion: histiocytic sarcoma + hemangioma + hemangiosarcoma + hepatocellular adenoma + hepatocellular carcinoma, dosed 95 weeks, study length 95 weeks): 54 mg/kg/day; TD50 (mouse, strain B6C3F1, females, inhaled, site: all sites, lesion: hemangioma + hemangiosarcoma, dosed 95 weeks, study length 95 weeks): 61.3 mg/kg/day; TD50 (mouse, strain B6C3F1, females, inhaled, site: all sites, lesion: hemangioma, dosed 95 weeks, study length 95 weeks): 835 mg/kg/day; TD50 (mouse, strain B6C3F1, females, inhaled, site: all sites, lesion: hemangiosarcoma, dosed 95 weeks, study length 95 weeks): 66.5 mg/kg/day; TD50 (mouse, strain B6C3F1, females, inhaled, site: all sites, lesion: histiocytic sarcoma, dosed 95 weeks, study length 95 weeks): 176 mg/kg/day; TD50 (mouse, strain B6C3F1, females, inhaled, site: any site (literature study), lesion: several types, types named in the paper, dosed 95 weeks, study length 95 weeks): 48.4 mg/kg/day; TD50 (mouse, strain B6C3F1, females, inhaled, site: liver, lesion: hemangioma + hemangiosarcoma, dosed 95 weeks, study length 95 weeks): 61.3 mg/kg/day; TD50 (mouse, strain B6C3F1, females, inhaled, site: liver, lesion: hemangioma, dosed 95 weeks, study length 95 weeks): 530 mg/kg/day; TD50 (mouse, strain B6C3F1, females, inhaled, site: liver, lesion: hemangiosarcoma, dosed 95 weeks, study length 95 weeks): 66.5 mg/kg/day; TD50 (mouse, strain B6C3F1, females, inhaled, site: liver, lesion: hepatocellular adenoma + hepatoblastoma + hepatocellular carcinoma, dosed 95 weeks, study length 95 weeks): 63.3 mg/kg/day; TD50 (mouse, strain B6C3F1, females, inhaled, site: liver, lesion: hepatocellular adenoma + hepatocellular carcinoma, dosed 95 weeks, study length 95 weeks): 63.3 mg/kg/day; TD50 (mouse, strain B6C3F1, females, inhaled, site: liver, lesion: hepatocellular adenoma, dosed 95 weeks, study length 95 weeks): 217 mg/kg/day; TD50 (mouse, strain B6C3F1, females, inhaled, site: liver, lesion: hepatocellular carcinoma, dosed 95 weeks, study length 95 weeks): 80.8 mg/kg/day; TD50 (mouse, strain B6C3F1, females, inhaled, site: lung, lesion: alveolar/bronchiolar adenoma + alveolar/bronchiolar carcinoma + carcinoma, dosed 95 weeks, study length 95 weeks): 1640 mg/kg/day; TD50 (mouse, strain B6C3F1, females, inhaled, site: lung, lesion: alveolar/bronchiolar adenoma + alveolar/bronchiolar carcinoma, dosed 95 weeks, study length 95 weeks): 1010 mg/kg/day; TD50 (mouse, strain B6C3F1, females, inhaled, site: pituitary gland, lesion: pars distalis adenoma, dosed 95 weeks, study length 95 weeks): 1450 mg/kg/day; TD50 (mouse, strain B6C3F1, males, inhaled, site: Harderian gland, lesion: adenoma + carcinoma, dosed 95 weeks, study length 95 weeks): 1270 mg/kg/day; TD50 (mouse, strain B6C3F1, males, inhaled, site: Harderian gland, lesion: adenoma, dosed 95 weeks, study length 95 weeks): 1390 mg/kg/day; TD50 (mouse, strain B6C3F1, males, inhaled, site: all sites + liver, lesion: histiocytic sarcoma + hemangioma + hemangiosarcoma + hepatocellular adenoma + hepatocellular carcinoma, dosed 95 weeks, study length 95 weeks): 71.6 mg/kg/day; TD50 (mouse, strain B6C3F1, males, inhaled, site: all sites, lesion: hemangioma + hemangiosarcoma, dosed 95 weeks, study length 95 weeks): 88.3 mg/kg/day; TD50 (mouse, strain B6C3F1, males, inhaled, site: all sites, lesion: hemangioma, dosed 95 weeks, study length 95 weeks): 297 mg/kg/day; TD50 (mouse, strain B6C3F1, males, inhaled, site: all sites, lesion: hemangiosarcoma, dosed 95 weeks, study length 95 weeks): 109 mg/kg/day; TD50 (mouse, strain B6C3F1, males, inhaled, site: all sites, lesion: histiocytic sarcoma, dosed 95 weeks, study length 95 weeks): 429 mg/kg/day; TD50 (mouse, strain B6C3F1, males, inhaled, site: any site (literature study), lesion: several types, types named in the paper, dosed 95 weeks, study length 95 weeks): 69.9 mg/kg/day; TD50 (mouse, strain B6C3F1, males, inhaled, site: liver, lesion: hemangioma + hemangiosarcoma, dosed 95 weeks, study length 95 weeks): 87 mg/kg/day; TD50 (mouse, strain B6C3F1, males, inhaled, site: liver, lesion: hemangioma, dosed 95 weeks, study length 95 weeks): 308 mg/kg/day; TD50 (mouse, strain B6C3F1, males, inhaled, site: liver, lesion: hemangiosarcoma, dosed 95 weeks, study length 95 weeks): 108 mg/kg/day; TD50 (mouse, strain B6C3F1, males, inhaled, site: liver, lesion: hepatocellular adenoma + hepatoblastoma + hepatocellular carcinoma, dosed 95 weeks, study length 95 weeks): 91 mg/kg/day; TD50 (mouse, strain B6C3F1, males, inhaled, site: liver, lesion: hepatocellular adenoma + hepatocellular carcinoma, dosed 95 weeks, study length 95 weeks): 91 mg/kg/day; TD50 (mouse, strain B6C3F1, males, inhaled, site: liver, lesion: hepatocellular adenoma, dosed 95 weeks, study length 95 weeks): 222 mg/kg/day; TD50 (mouse, strain B6C3F1, males, inhaled, site: liver, lesion: hepatocellular carcinoma, dosed 95 weeks, study length 95 weeks): 190 mg/kg/day; TD50 (mouse, strain B6C3F1, males, inhaled, site: lung, lesion: alveolar/bronchiolar adenoma + alveolar/bronchiolar carcinoma + carcinoma, dosed 95 weeks, study length 95 weeks): 216 mg/kg/day; TD50 (mouse, strain B6C3F1, males, inhaled, site: lung, lesion: alveolar/bronchiolar adenoma + alveolar/bronchiolar carcinoma, dosed 95 weeks, study length 95 weeks): 220 mg/kg/day; TD50 (mouse, strain B6C3F1, males, inhaled, site: lung, lesion: alveolar/bronchiolar adenoma, dosed 95 weeks, study length 95 weeks): 348 mg/kg/day; TD50 (mouse, strain B6C3F1, males, inhaled, site: lung, lesion: alveolar/bronchiolar carcinoma + carcinoma, dosed 95 weeks, study length 95 weeks): 830 mg/kg/day; TD50 (mouse, strain B6C3F1, males, inhaled, site: thyroid gland, lesion: follicular-cell adenoma + follicular-cell carcinoma, dosed 95 weeks, study length 95 weeks): 988 mg/kg/day; TD50 (mouse, strain B6C3F1, males, inhaled, site: thyroid gland, lesion: follicular-cell adenoma, dosed 95 weeks, study length 95 weeks): 1440 mg/kg/day; TD50 (rat, strain Fischer 344, females, inhaled, site: all sites + liver, lesion: mononuclear-cell leukemia + hemangiosarcoma + hepatocellular adenoma + hepatocellular carcinoma, dosed 103 weeks, study length 104 weeks): 56.3 mg/kg/day; TD50 (rat, strain Fischer 344, females, inhaled, site: all sites, lesion: hemangiosarcoma, dosed 103 weeks, study length 104 weeks): 886 mg/kg/day; TD50 (rat, strain Fischer 344, females, inhaled, site: all sites, lesion: mononuclear-cell leukemia, dosed 103 weeks, study length 104 weeks): 228 mg/kg/day; TD50 (rat, strain Fischer 344, females, inhaled, site: any site (literature study), lesion: several types, types named in the paper, dosed 103 weeks, study length 104 weeks): 287 mg/kg/day; TD50 (rat, strain Fischer 344, females, inhaled, site: kidney, lesion: tubule adenoma + tubule carcinoma, dosed 103 weeks, study length 104 weeks): 958 mg/kg/day and 1310 mg/kg/day; TD50 (rat, strain Fischer 344, females, inhaled, site: kidney, lesion: tubule adenoma, dosed 103 weeks, study length 104 weeks): 1510 mg/kg/day; TD50 (rat, strain Fischer 344, females, inhaled, site: kidney, lesion: tubule carcinoma, dosed 103 weeks, study length 104 weeks): 7380 mg/kg/day; TD50 (rat, strain Fischer 344, females, inhaled, site: liver, lesion: hemangiosarcoma, dosed 103 weeks, study length 104 weeks): 886 mg/kg/day; TD50 (rat, strain Fischer 344, females, inhaled, site: liver, lesion: hepatocellular adenoma + hepatoblastoma + hepatocellular carcinoma, dosed 103 weeks, study length 104 weeks): 156 mg/kg/day; TD50 (rat, strain Fischer 344, females, inhaled, site: liver, lesion: hepatocellular adenoma + hepatocellular carcinoma, dosed 103 weeks, study length 104 weeks): 156 mg/kg/day; TD50 (rat, strain Fischer 344, females, inhaled, site: liver, lesion: hepatocellular adenoma, dosed 103 weeks, study length 104 weeks): 528 mg/kg/day; TD50 (rat, strain Fischer 344, females, inhaled, site: liver, lesion: hepatocellular carcinoma, dosed 103 weeks, study length 104 weeks): 251 mg/kg/day; TD50 (rat, strain Fischer 344, males, inhaled, site: all sites, lesion: mononuclear-cell leukemia, dosed 103 weeks, study length 104 weeks): 59.7 mg/kg/day; TD50 (rat, strain Fischer 344, males, inhaled, site: any site (literature study), lesion: several types, types named in the paper, dosed 103 weeks, study length 104 weeks): 35.4 mg/kg/day; TD50 (rat, strain Fischer 344, males, inhaled, site: kidney, lesion: renal tubule adenoma, bilateral + tubule adenoma + tubule carcinoma, dosed 103 weeks, study length 104 weeks): 292 mg/kg/day and 367 mg/kg/day; TD50 (rat, strain Fischer 344, males, inhaled, site: kidney, lesion: renal tubule adenoma, bilateral + tubule adenoma, dosed 103 weeks, study length 104 weeks): 242 mg/kg/day and 334 mg/kg/day; TD50 (rat, strain Fischer 344, males, inhaled, site: liver, lesion: hepatocellular adenoma + hepatoblastoma + hepatocellular carcinoma, dosed 103 weeks, study length 104 weeks): 81.6 mg/kg/day; TD50 (rat, strain Fischer 344, males, inhaled, site: liver, lesion: hepatocellular adenoma + hepatocellular carcinoma, dosed 103 weeks, study length 104 weeks): 81.6 mg/kg/day; TD50 (rat, strain Fischer 344, males, inhaled, site: liver, lesion: hepatocellular adenoma, dosed 103 weeks, study length 104 weeks): 136 mg/kg/day; TD50 (rat, strain Fischer 344, males, inhaled, site: liver, lesion: hepatocellular carcinoma, dosed 103 weeks, study length 104 weeks): 163 mg/kg/day; TD50 (rat, strain Fischer 344, males, inhaled, site: testis, lesion: interstitial-cell adenoma, bilateral + interstitial-cell adenoma, dosed 103 weeks, study length 104 weeks): 27.5 mg/kg/day

Question: What does the source list for `Nc1ccc(O)c([N+](=O)[O-])c1`?
Answer: carcinogen call (mouse, strain B6C3F1, females, in feed, site: any site (literature study), lesion: several types, types named in the paper, dosed 103 weeks, study length 105 weeks): negative (inactive); TD50 (mouse, strain B6C3F1, females, in feed, site: liver, lesion: hepatocellular adenoma + hepatocellular carcinoma + neoplastic nodule, dosed 103 weeks, study length 105 weeks): 3650 mg/kg/day; carcinogen call (mouse, strain B6C3F1, males, in feed, site: any site (literature study), lesion: several types, types named in the paper, dosed 103 weeks, study length 105 weeks): negative (inactive); TD50 (mouse, strain B6C3F1, males, in feed, site: liver, lesion: hepatocellular adenoma + hepatocellular carcinoma + neoplastic nodule, dosed 103 weeks, study length 105 weeks): 2250 mg/kg/day; TD50 (rat, strain Fischer 344, females, in feed, site: urinary bladder, lesion: transitional-cell carcinoma, dosed 103 weeks, study length 105 weeks): 1880 mg/kg/day; TD50 (rat, strain Fischer 344, males, in feed, site: any site (literature study), lesion: several types, types named in the paper, dosed 103 weeks, study length 105 weeks): 270 mg/kg/day; TD50 (rat, strain Fischer 344, males, in feed, site: urinary bladder, lesion: transitional-cell carcinoma, dosed 103 weeks, study length 105 weeks): 309 mg/kg/day

Question: With `O=S1(=O)N=C(O)c2ccccc21` as the molecule, how does the carcinogen call (rat, strain Fischer 344, males, in feed, site: forestomach, lesion: papilloma, dosed 72 weeks, study length 73 weeks) read?
Answer: negative (inactive)

Question: What about the carcinogen call (rat, strain Fischer 344, males, in feed, site: urinary bladder, lesion: carcinoma, dosed 72 weeks, study length 73 weeks) of the same molecule?
Answer: negative (inactive)

Question: What does the source list for `CCCCCC(/C=C/C=C\CCCCCCCC(=O)OC)OO` (configuration not stated)?
Answer: carcinogen call (rat, strain Wistar, males, by gavage, site: gastrointestinal tract, lesion: several types, types named in the paper, dosed 30 weeks, study length 87 weeks): negative (inactive); carcinogen call (rat, strain Wistar, males, by gavage, site: liver, lesion: one or several types, types not named, dosed 30 weeks, study length 87 weeks): negative (inactive)

Question: How did the TD50 (hamster, strain Syrian Golden, females, by gavage, site: liver, lesion: cholangiocarcinoma, dosed 40 weeks, study length 55 weeks) turn out when `C=CCN(CC(C)=O)N=O` was run?
Answer: 21.2 mg/kg/day

Question: What about the TD50 (hamster, strain Syrian Golden, females, by gavage, site: liver, lesion: hepatocellular adenoma, dosed 40 weeks, study length 55 weeks) of the same molecule?
Answer: 4.87 mg/kg/day

Question: What about the TD50 (hamster, strain Syrian Golden, females, by gavage, site: liver, lesion: several types, types named in the paper, dosed 40 weeks, study length 55 weeks) of the same molecule?
Answer: 3.78 mg/kg/day

Question: What about the TD50 (hamster, strain Syrian Golden, females, by gavage, site: nasal mucosa, lesion: carcinoma, dosed 40 weeks, study length 55 weeks) of the same molecule?
Answer: 1.36 mg/kg/day

Question: And the TD50 (hamster, strain Syrian Golden, females, by gavage, site: nasal mucosa, lesion: several types, types named in the paper, dosed 40 weeks, study length 55 weeks)?
Answer: 1.19 mg/kg/day

Question: And the TD50 (rat, strain Fischer 344, females, in drinking water, site: esophagus, lesion: several types, types named in the paper, dosed 50 weeks, study length 85 weeks)?
Answer: 1.25 mg/kg/day

Question: And the TD50 (rat, strain Fischer 344, females, in drinking water, site: liver, lesion: hepatocellular carcinoma, dosed 50 weeks, study length 85 weeks)?
Answer: 0.335 mg/kg/day

Question: With `Cc1c(C)c2c(c(C)c1O)CCC(C)(CCCC(C)CCCC(C)CCCC(C)C)O2` (configuration not stated) as the molecule, how does the carcinogen call (rat, strain F344/DuCrj, females, in feed, site: colon, lesion: one or several types, types not named, dosed 54 weeks, study length 54 weeks) read?
Answer: negative (inactive)

Question: And the carcinogen call (rat, strain F344/DuCrj, females, in feed, site: mammary gland, lesion: one or several types, types not named, dosed 54 weeks, study length 54 weeks)?
Answer: negative (inactive)

Question: And the carcinogen call (rat, strain F344/DuCrj, males, in feed, site: esophagus, lesion: one or several types, types not named, dosed 52 weeks, study length 52 weeks)?
Answer: negative (inactive)

Question: What about the carcinogen call (rat, strain F344/DuCrj, males, in feed, site: forestomach, lesion: one or several types, types not named, dosed 52 weeks, study length 52 weeks) of the same molecule?
Answer: negative (inactive)

Question: And the carcinogen call (rat, strain F344/DuCrj, males, in feed, site: liver, lesion: one or several types, types not named, dosed 52 weeks, study length 52 weeks)?
Answer: negative (inactive)
